# Patent publication US9370535B2, “Method for treatment of advanced solid tumors” (BOEHRINGER INGELHEIM INTERNATIONAL GMBH, priority 2011, dated 2016)
# System: patients with advanced and/or metastatic solid tumours
# Assay: Clinical trial of Volasertib in combination with Cisplatin (arm A) or Carboplatin (arm B)
# Format: in vivo
# Details: for maximum tolerated dose for volasertib: single 2-hour infusion on day 1 every 3 weeks
# Source text: Sequential cohorts of three to six patients (pts) received a single 2-hour infusion of Volasertib (V) in combination with Cisplatin (Cis) (arm A) or Carboplatin (Ca) (arm B), on day 1 every 3 weeks. Cis and Ca were given for up to six cycles (Cy), V was continued until disease progression or unacceptable toxicity.
compound,measurement,setting,value
"CC[C@@H]1C(=O)N(C)c2cnc(Nc3ccc(C(=O)N[C@H]4CC[C@H](N5CCN(CC6CC6)CC5)CC4)cc3OC)nc2N1C(C)C [Volasertib, N-[trans-4-[4-(cyclopropylmethyl)-1-piperazinyl]cyclohexyl]-4-[[(7R)-7-ethyl-5,6,7,8-tetrahydro-5-methyl-8-(1-methylethyl)-6-oxo-2-pteridinyl]amino]-3-methoxy-benzamide]",partial responses (PR) observed,"arm A (with Cisplatin), CHOP-resistant follicular dendritic reticulum cell sarcoma, dose levels A2, A4",two
same,partial responses (PR) observed,"arm A (with Cisplatin), pretreated lung cancer, dose level A5, PR yet to be confirmed",one
same,partial responses (PR) observed,"arm B (with Carboplatin), heavily-pretreated head and neck carcinoma, dose level B4",one
same,partial responses (PR) observed,"both arms together (combination with Cisplatin or Carboplatin), 46 patients",Four
same,side effects (myelosuppression) on combination,"human, in vivo",without potentiation of those side effects
same,maximum tolerated dose for volasertib,in combination with carboplatin,≥ 300 mg
same,maximum tolerated dose for volasertib,in combination with cisplatin,≥ 300 mg
